Assays:
Test in all cases: Proqinase Kinase profiling
Format in all cases: biochemical
Settings in all cases: read-out: % inhibition at 100nM
[1] = biological target: T1, ROS1 (Homo sapiens, UniProt P08922)
T1 construct: purchased DiscoverX

[2] = biological target: T2, FRK (Homo sapiens, UniProt P42685)
T2 construct: purchased DiscoverX

[3] = biological target: T3, PTK6 (Homo sapiens, UniProt Q13882)
T3 construct: purchased DiscoverX

[4] = biological target: T4, JAK3 (Homo sapiens, UniProt P52333)
T4 construct: purchased DiscoverX

[5] = biological target: T5, ABL1_M351T (Homo sapiens, UniProt P00519, M351T)
T5 construct: purchased DiscoverX

[6] = biological target: T6, RPS6KA1 (Homo sapiens, UniProt Q15418)
T6 construct: purchased DiscoverX

[7] = biological target: T7, MATK (Homo sapiens, UniProt P42679)
T7 construct: purchased DiscoverX

[8] = biological target: T8, NEK7 (Homo sapiens, UniProt Q8TDX7)
T8 construct: purchased DiscoverX

[9] = biological target: T9, PRKD3 (Homo sapiens, UniProt O94806)
T9 construct: purchased DiscoverX

[10] = biological target: T10, BLK (Homo sapiens, UniProt P51451)
T10 construct: purchased DiscoverX

[11] = biological target: T11, STK39 (Homo sapiens, UniProt Q9UEW8)
T11 construct: purchased DiscoverX

[12] = biological target: T12, FLT4 (Homo sapiens, UniProt P35916)
T12 construct: purchased DiscoverX

[13] = biological target: T13, NEK6 (Homo sapiens, UniProt Q9HC98)
T13 construct: purchased DiscoverX

[14] = biological target: T14, GRK7 (Homo sapiens, UniProt Q8WTQ7)
T14 construct: purchased DiscoverX

[15] = biological target: T15, MAPK12 (Homo sapiens, UniProt P53778)
T15 construct: purchased DiscoverX

[16] = biological target: T16, RET_V804M (Homo sapiens, UniProt P07949, V804M)
T16 construct: purchased DiscoverX

[17] = biological target: T17, STK17A (Homo sapiens, UniProt Q9UEE5)
T17 construct: purchased DiscoverX

[18] = biological target: T18, RPS6KA3 (Homo sapiens, UniProt P51812)
T18 construct: purchased DiscoverX

[19] = biological target: T19, PHKG1 (Homo sapiens, UniProt Q16816)
T19 construct: purchased DiscoverX

[20] = biological target: T20, STK16 (Homo sapiens, UniProt O75716)
T20 construct: purchased DiscoverX

[21] = biological target: T21, EGFR_T790M_L858R (Homo sapiens, UniProt P00533, L858R/T790M)
T21 construct: purchased DiscoverX

[22] = biological target: T22, RPS6KB2 (Homo sapiens, UniProt Q9UBS0)
T22 construct: purchased DiscoverX

[23] = biological target: T23, CSNK1G2 (Homo sapiens, UniProt P78368)
T23 construct: purchased DiscoverX

[24] = biological target: T24, PRKACA (Homo sapiens, UniProt P17612)
T24 construct: purchased DiscoverX

[25] = biological target: T25, EEF2K (Homo sapiens, UniProt O00418)
T25 construct: purchased DiscoverX

[26] = biological target: T26, EIF2AK3 (Homo sapiens, UniProt Q9NZJ5)
T26 construct: purchased DiscoverX

[27] = biological target: T27, STK25 (Homo sapiens, UniProt O00506)
T27 construct: purchased DiscoverX

[28] = biological target: T28, EPHA5 (Homo sapiens, UniProt P54756)
T28 construct: purchased DiscoverX

[29] = biological target: T29, NUAK2 (Homo sapiens, UniProt Q9H093)
T29 construct: purchased DiscoverX

[30] = biological target: T30, NEK1 (Homo sapiens, UniProt Q96PY6)
T30 construct: purchased DiscoverX

[31] = biological target: T31, IKBKE (Homo sapiens, UniProt Q14164)
T31 construct: purchased DiscoverX

[32] = biological target: T32, MAP3K11 (Homo sapiens, UniProt Q16584)
T32 construct: purchased DiscoverX

[33] = biological target: T33, GCK (Homo sapiens, UniProt Q12851)
T33 construct: purchased DiscoverX

[34] = biological target: T34, PBK (Homo sapiens, UniProt Q96KB5)
T34 construct: purchased DiscoverX

[35] = biological target: T35, PAK2 (Homo sapiens, UniProt Q13177)
T35 construct: purchased DiscoverX

[36] = biological target: T36, SLK (Homo sapiens, UniProt Q9H2G2)
T36 construct: purchased DiscoverX

[37] = biological target: T37, CSNK2A2 (Homo sapiens, UniProt P19784)
T37 construct: purchased DiscoverX

[38] = biological target: T38, ADRBK1 (Homo sapiens, UniProt P25098)
T38 construct: purchased DiscoverX

[39] = biological target: T39, RET_R813Q (Homo sapiens, UniProt P07949, R813Q)
T39 construct: purchased DiscoverX

[40] = biological target: T40, MUSK (Homo sapiens, UniProt O15146)
T40 construct: purchased DiscoverX

[41] = biological target: T41, PRKD1 (Homo sapiens, UniProt Q15139)
T41 construct: purchased DiscoverX

[42] = biological target: T42, FGFR1_V561M (Homo sapiens, UniProt P11362, V561M)
T42 construct: purchased DiscoverX

[43] = biological target: T43, DSTYK (Homo sapiens, UniProt Q6XUX3)
T43 construct: purchased DiscoverX

T14 sequence (Q8WTQ7 whole entry): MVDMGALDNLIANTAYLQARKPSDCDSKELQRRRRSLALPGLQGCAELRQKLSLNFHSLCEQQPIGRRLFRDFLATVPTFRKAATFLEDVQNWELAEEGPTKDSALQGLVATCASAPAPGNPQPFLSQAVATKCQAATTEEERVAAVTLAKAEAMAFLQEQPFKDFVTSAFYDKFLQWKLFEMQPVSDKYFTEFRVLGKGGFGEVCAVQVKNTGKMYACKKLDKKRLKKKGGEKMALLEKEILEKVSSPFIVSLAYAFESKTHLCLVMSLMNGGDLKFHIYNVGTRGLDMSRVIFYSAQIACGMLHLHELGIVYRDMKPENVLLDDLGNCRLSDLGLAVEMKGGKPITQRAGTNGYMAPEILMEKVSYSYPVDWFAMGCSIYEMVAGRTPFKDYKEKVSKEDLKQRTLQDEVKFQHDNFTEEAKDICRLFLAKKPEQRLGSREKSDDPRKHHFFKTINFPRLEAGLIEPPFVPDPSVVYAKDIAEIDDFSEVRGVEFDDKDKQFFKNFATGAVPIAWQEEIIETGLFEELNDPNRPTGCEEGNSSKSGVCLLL
T33 sequence (Q12851 whole entry): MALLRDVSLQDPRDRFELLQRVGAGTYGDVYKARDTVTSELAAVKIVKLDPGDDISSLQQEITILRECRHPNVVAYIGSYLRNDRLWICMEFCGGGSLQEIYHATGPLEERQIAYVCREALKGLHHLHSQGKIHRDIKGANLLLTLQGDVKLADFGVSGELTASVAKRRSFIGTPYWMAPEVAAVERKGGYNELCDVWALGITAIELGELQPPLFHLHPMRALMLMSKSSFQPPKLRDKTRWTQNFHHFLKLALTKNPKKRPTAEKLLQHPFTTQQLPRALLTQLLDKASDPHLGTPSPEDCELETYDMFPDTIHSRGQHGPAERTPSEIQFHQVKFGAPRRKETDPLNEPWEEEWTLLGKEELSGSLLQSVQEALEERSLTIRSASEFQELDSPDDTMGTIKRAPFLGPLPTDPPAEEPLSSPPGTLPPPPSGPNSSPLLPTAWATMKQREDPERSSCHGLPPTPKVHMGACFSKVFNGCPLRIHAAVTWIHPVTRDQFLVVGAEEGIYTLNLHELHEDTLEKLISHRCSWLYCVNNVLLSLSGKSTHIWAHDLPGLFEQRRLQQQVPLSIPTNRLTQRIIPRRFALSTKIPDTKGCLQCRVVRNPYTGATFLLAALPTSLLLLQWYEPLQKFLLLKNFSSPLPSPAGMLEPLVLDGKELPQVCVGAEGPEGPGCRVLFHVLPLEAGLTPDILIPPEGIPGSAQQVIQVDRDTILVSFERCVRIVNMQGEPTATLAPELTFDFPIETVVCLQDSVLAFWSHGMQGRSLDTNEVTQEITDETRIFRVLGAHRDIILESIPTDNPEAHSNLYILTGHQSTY
T23 sequence (P78368 whole entry): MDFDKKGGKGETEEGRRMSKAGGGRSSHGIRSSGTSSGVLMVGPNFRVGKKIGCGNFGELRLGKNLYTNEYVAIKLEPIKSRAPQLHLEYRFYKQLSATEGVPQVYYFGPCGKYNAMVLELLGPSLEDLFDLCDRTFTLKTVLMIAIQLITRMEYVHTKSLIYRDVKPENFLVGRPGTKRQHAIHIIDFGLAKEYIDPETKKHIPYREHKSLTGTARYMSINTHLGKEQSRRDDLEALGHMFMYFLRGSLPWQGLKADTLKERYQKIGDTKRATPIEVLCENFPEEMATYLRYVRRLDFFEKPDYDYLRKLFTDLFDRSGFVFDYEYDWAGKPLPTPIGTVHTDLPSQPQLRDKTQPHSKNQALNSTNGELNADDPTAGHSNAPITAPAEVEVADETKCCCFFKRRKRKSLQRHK
T36 sequence (Q9H2G2 whole entry): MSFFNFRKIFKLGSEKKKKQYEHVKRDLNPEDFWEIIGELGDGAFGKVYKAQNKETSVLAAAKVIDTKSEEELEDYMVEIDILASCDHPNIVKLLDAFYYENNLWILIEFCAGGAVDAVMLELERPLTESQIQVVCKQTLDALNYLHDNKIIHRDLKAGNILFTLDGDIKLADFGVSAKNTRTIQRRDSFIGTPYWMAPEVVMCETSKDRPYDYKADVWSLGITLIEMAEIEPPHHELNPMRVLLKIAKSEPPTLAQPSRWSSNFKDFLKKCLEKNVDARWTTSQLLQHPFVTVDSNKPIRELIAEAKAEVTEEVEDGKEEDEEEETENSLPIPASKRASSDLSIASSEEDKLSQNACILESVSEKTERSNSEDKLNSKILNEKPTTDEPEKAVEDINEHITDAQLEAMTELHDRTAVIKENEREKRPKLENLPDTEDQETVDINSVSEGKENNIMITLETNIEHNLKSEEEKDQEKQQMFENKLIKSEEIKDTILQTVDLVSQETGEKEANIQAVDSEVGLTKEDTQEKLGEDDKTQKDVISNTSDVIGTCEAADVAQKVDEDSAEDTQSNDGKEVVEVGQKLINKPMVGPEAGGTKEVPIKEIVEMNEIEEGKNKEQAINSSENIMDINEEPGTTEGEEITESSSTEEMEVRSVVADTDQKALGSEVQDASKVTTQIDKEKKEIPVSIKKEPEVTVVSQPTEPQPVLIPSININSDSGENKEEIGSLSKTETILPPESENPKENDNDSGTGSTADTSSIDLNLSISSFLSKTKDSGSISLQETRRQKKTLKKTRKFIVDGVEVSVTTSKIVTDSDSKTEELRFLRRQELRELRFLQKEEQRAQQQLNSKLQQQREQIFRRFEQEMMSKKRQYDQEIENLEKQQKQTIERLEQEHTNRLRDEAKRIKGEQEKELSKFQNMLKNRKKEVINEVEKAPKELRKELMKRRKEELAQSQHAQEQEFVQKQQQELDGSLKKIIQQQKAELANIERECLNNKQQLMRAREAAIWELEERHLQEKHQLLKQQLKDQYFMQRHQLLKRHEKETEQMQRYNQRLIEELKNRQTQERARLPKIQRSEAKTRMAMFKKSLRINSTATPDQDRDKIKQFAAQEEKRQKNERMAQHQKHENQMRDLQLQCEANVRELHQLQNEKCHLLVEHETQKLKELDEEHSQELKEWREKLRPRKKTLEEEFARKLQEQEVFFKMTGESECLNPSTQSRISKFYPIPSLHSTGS
T6 sequence (Q15418 whole entry): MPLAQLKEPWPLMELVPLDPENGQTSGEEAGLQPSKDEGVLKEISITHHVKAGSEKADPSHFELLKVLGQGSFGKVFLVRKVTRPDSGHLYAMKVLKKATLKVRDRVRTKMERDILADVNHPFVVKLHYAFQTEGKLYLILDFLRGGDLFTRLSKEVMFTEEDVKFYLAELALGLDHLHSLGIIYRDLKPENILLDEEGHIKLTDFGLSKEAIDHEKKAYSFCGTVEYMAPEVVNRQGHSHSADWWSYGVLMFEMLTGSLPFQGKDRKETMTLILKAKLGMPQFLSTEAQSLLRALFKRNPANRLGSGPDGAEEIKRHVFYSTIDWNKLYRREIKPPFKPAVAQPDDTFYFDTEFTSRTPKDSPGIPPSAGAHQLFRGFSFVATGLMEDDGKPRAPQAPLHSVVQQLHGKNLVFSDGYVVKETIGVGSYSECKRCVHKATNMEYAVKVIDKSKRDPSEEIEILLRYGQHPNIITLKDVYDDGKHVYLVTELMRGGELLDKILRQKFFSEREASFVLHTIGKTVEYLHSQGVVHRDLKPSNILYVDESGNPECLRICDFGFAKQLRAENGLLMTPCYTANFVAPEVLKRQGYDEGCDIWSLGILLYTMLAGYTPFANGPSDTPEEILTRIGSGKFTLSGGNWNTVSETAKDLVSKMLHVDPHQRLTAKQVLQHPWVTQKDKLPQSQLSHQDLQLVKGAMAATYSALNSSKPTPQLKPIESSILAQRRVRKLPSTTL
T38 sequence (P25098 whole entry): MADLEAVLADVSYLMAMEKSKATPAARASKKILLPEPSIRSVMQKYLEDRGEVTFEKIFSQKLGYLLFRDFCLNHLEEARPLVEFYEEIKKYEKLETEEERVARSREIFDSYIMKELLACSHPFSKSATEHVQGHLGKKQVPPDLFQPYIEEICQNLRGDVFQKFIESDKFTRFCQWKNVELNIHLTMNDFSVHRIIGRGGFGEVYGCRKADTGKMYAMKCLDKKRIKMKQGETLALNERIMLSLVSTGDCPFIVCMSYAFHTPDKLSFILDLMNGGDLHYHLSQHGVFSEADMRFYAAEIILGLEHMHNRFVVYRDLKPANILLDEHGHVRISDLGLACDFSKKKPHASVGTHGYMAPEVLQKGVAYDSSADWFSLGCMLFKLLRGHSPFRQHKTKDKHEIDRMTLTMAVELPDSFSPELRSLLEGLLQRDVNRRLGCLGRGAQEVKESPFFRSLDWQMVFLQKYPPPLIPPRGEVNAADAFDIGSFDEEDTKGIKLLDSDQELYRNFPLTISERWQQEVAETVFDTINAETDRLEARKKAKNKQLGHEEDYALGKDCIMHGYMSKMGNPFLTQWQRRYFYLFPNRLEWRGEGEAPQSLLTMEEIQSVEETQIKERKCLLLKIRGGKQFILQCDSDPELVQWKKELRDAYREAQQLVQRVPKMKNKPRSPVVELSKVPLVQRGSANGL
T7 sequence (P42679 whole entry): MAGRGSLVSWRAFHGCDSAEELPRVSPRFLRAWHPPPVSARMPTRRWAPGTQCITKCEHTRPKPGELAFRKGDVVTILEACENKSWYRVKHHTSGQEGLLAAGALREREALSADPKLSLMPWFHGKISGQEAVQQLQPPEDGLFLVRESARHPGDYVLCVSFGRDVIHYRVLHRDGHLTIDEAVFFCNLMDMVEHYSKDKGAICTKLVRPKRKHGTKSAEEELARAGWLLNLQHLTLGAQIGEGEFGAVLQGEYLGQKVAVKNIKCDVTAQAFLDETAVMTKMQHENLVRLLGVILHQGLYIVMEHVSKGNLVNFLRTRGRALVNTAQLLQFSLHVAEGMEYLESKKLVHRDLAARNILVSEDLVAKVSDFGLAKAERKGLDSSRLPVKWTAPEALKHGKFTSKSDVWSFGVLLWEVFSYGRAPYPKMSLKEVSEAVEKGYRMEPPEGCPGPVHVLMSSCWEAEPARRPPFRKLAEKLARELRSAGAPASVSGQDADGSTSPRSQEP

SMILES: Clc1cc2cc(c1)-c1cnn3ccc(nc13)NCCOCCO2 [OD36]
- inhibition at 0.1 µM [1]: 7%
- inhibition at 0.1 µM [2]: 35%
- inhibition at 0.1 µM [3]: 46%
- inhibition at 0.1 µM [4]: 6%
- inhibition at 0.1 µM [5]: 16%
- inhibition at 0.1 µM [6]: 9%
- inhibition at 0.1 µM [7]: 9%
- inhibition at 0.1 µM [8]: 5%
- inhibition at 0.1 µM [9]: 2%
- inhibition at 0.1 µM [10]: 35%
- inhibition at 0.1 µM [11]: 0%
- inhibition at 0.1 µM [12]: 44%
- inhibition at 0.1 µM [13]: -7%
- inhibition at 0.1 µM [14]: 6%
- inhibition at 0.1 µM [15]: 24%
- inhibition at 0.1 µM [16]: 5%
- inhibition at 0.1 µM [17]: 23%
- inhibition at 0.1 µM [18]: 11%
- inhibition at 0.1 µM [19]: 8%
- inhibition at 0.1 µM [20]: 12%
- inhibition at 0.1 µM [21]: -13%
- inhibition at 0.1 µM [22]: 11%
- inhibition at 0.1 µM [23]: -3%
- inhibition at 0.1 µM [24]: -3%
- inhibition at 0.1 µM [25]: -9%
- inhibition at 0.1 µM [26]: 1%
- inhibition at 0.1 µM [27]: 1%
- inhibition at 0.1 µM [28]: 10%
- inhibition at 0.1 µM [29]: 9%
- inhibition at 0.1 µM [30]: 14%
- inhibition at 0.1 µM [31]: 6%
- inhibition at 0.1 µM [32]: 30%
- inhibition at 0.1 µM [33]: 35%
- inhibition at 0.1 µM [34]: 19%
- inhibition at 0.1 µM [35]: -5%
- inhibition at 0.1 µM [36]: 13%
- inhibition at 0.1 µM [37]: 8%
- inhibition at 0.1 µM [38]: 4%
- inhibition at 0.1 µM [39]: 45%
- inhibition at 0.1 µM [40]: -1%
- inhibition at 0.1 µM [41]: -11%
- inhibition at 0.1 µM [42]: 9%
- inhibition at 0.1 µM [43]: 3%

SMILES: Cc1cc2cc(c1)-c1cnn3ccc(nc13)NCCNC(=O)CCN(C)C2 [OD52]
- inhibition at 0.1 µM [1]: 5%
- inhibition at 0.1 µM [2]: -5%
- inhibition at 0.1 µM [3]: 0%
- inhibition at 0.1 µM [4]: -3%
- inhibition at 0.1 µM [5]: -7%
- inhibition at 0.1 µM [6]: 10%
- inhibition at 0.1 µM [7]: -9%
- inhibition at 0.1 µM [8]: 5%
- inhibition at 0.1 µM [9]: 4%
- inhibition at 0.1 µM [10]: -6%
- inhibition at 0.1 µM [11]: 5%
- inhibition at 0.1 µM [12]: -13%
- inhibition at 0.1 µM [13]: -12%
- inhibition at 0.1 µM [14]: 12%
- inhibition at 0.1 µM [15]: -10%
- inhibition at 0.1 µM [16]: -6%
- inhibition at 0.1 µM [17]: 4%
- inhibition at 0.1 µM [18]: -12%
- inhibition at 0.1 µM [19]: -4%
- inhibition at 0.1 µM [20]: 9%
- inhibition at 0.1 µM [21]: 0%
- inhibition at 0.1 µM [22]: 4%
- inhibition at 0.1 µM [23]: 4%
- inhibition at 0.1 µM [24]: -7%
- inhibition at 0.1 µM [25]: -13%
- inhibition at 0.1 µM [26]: -14%
- inhibition at 0.1 µM [27]: 2%
- inhibition at 0.1 µM [28]: -1%
- inhibition at 0.1 µM [29]: -7%
- inhibition at 0.1 µM [30]: -4%
- inhibition at 0.1 µM [31]: -21%
- inhibition at 0.1 µM [32]: 14%
- inhibition at 0.1 µM [33]: 1%
- inhibition at 0.1 µM [34]: -5%
- inhibition at 0.1 µM [35]: -7%
- inhibition at 0.1 µM [36]: 10%
- inhibition at 0.1 µM [37]: 5%
- inhibition at 0.1 µM [38]: 10%
- inhibition at 0.1 µM [39]: 37%
- inhibition at 0.1 µM [40]: -11%
- inhibition at 0.1 µM [41]: -22%
- inhibition at 0.1 µM [42]: -26%
- inhibition at 0.1 µM [43]: -1%

Source: article PMC6874179, “Development of Macrocycle Kinase Inhibitors for ALK2 Using Fibrodysplasia Ossificans Progressiva‐Derived Endothelial Cells” (JBMR Plus, 2019)
